Key:
Aa1 = assay: Cerep selectivity panel; type: binding
Aa2 = assay: Cerep selectivity panel; type: binding
RORγt transcripts = assay: RT-PCR of RORγt transcripts in human CD4 T cells during Th17 differentiation; type: cell-based; settings: 0.1 and 0.5 μM, throughout the time course (2 hours to 6 days)
Protocol: Human CD4 T cells from 2 healthy donors were used in studies. 5.0 × 10^6 human CD4 T cells were used per sample and cell samples were collected at 0, 24 and 48 hours of Th17 differentiation for gene expression studies with RNA-Seq and RT-PCR.
Expression of RORα, RORγt and IL-17A genes in siRNA or compound treated human Th17 cells was measured by quantitative RT-PCR using the TaqMan RNA-to-Ct 1 step kit (Applied Biosystems) following the manufacturer’s instructions. […] Real time PCR was performed using 600ng total RNA as template in the ABI PRISM 7500 Sequence Detection System (Applied Biosystems), with reaction starting at 48°C for 15 minutes, then 10 minutes at 95°C, followed by 40 cycles of 15 seconds at 95°C and 1 minute at 60°C.
PCR results were analyzed with the ddCT algorithm [34] to generate data on relative quantitation and changes in gene expression.

IL-17A transcripts = assay: RT-PCR of IL-17A transcripts in human CD4 T cells during Th17 differentiation; type: cell-based; settings: 0.5 μM compound
Protocol: Human CD4 T cells from 2 healthy donors were used in studies. […]
For compound treatment, CD4 T cells were pre-treated with compounds or DMSO vehicle control at 37°C for 1 hour before T cell activation.
For siRNA treatment, three RORγt siRNAs, two RORα siRNAs, two control siRNAs were tested at 1 μM, and mock transfected samples were included as controls (S1 Table). siRNA treatment was performed by Amaxa electroporation of human CD4 T cells with siRNAs. Human CD4 T cells were taken up in 100 μL Nucleofector solution (P3 primary cell 4D Nucleofector Kit, reference V4XP-3024, Amaxa Biosciences) at 5.0 × 10^6 cells/100 μL. Cell suspensions were transfected with siRNA by electroporation using the FI-115 program in the Amaxa 4D-Nucleofector. T cells after electroporation were rinsed with 500 μL culture medium, transferred to 24-well culture plates and kept at 37°C cell incubator before use in T cell assays. It was noticed that Amaxa electroporation caused an increased expression of some genes in human T cells and this elevated gene expression lasted up to 8 hours after electroporation. To avoid gene expression study interfered by electroporation, human CD4 T cells were rested in culture medium at 37°C for 8 hours after siRNA electroporation before the use of these cells to initiate Th17 differentiation for transcriptome profile.
T cells after compound or siRNA treatments were stimulated with anti-CD3/anti-CD28 coated beads (Miltenyi Biotech) at 2:1 bead to cell ratio in culture medium containing 10 ng/ml IL1β (R&D), 10 ng/ml IL23 (R&D), 30 ng/ml TGFβ1 (R&D), 10 μg/ml of anti-IL4 and anti-IFNγ (eBioscience). T cell cultures were collected at different time points for RNA extraction and gene expression studies.
Expression of RORα, RORγt and IL-17A genes in siRNA or compound treated human Th17 cells was measured by quantitative RT-PCR using the TaqMan RNA-to-Ct 1 step kit (Applied Biosystems) following the manufacturer’s instructions. […]
PCR results were analyzed with the ddCT algorithm to generate data on relative quantitation and changes in gene expression.

H2 (h) = target: T1, H2 (h) (Homo sapiens, UniProt P25021); assay: Cerep selectivity panel; type: binding
T1 construct: purchased Cerep
T1 sequence (P25021 whole entry): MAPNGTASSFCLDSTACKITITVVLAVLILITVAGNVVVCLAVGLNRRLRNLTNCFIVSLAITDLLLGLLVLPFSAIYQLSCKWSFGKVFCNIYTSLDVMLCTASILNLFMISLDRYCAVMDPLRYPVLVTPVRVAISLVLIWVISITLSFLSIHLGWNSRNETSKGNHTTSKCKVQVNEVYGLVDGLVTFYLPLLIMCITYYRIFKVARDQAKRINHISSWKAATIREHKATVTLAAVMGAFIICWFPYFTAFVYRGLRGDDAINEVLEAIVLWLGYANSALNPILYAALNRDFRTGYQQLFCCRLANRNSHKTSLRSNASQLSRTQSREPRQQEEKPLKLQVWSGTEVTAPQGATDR
How it was run: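 Single-point testing at 1 µM and again at 10 µM; targets belong to an outsourced panel of 50 receptors, ion channels and transporters.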

RORγ/γt LBD = target: T2, RORγ/γt LBD (Homo sapiens, UniProt P51449); assay: ThermoFluor binding assay, RORγ/γt LBD; settings: recombinant human LBD; read-out: ThermoFlour Binding Assay (Kd, nM) RORγ/γt
T2 construct: made in house; host or cells: E. coli BL21DE3 GOLD, pET24a
T2 sequence (P51449 258-518): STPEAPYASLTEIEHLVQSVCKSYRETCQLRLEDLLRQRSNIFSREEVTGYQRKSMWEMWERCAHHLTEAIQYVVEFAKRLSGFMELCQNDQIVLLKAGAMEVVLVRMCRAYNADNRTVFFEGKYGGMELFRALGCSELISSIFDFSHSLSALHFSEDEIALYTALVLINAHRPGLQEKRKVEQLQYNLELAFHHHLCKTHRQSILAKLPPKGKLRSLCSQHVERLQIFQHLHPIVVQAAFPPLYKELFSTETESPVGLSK
Protocol: Recombinant human RORγ, RORα and RORβ LBD proteins were prepared for ThermoFlour binding assay. […] All recombinant proteins contained an additional amino acid sequence of [sequence] at the N-terminal of LBD. After transformation of the bacteria strain BL21DE3 GOLD (Agilent) with the plasmids, 10 to 20 L cultures were grown to 1 OD and recombinant protein expression was induced overnight at 16°C with 0.2mM isopropyl-beta-D-thiogalactopyranoside (IPTG) (Corning). […] His-tagged proteins were collected with Ni-NTA resin (Qiagen) and purified with a HiTrap Q HP column (GE Life Sciences) eluted with a 40 CV gradient of 50-500mM NaCl.
The ThermoFluor® assay was established to measure the change in protein stability upon binding with compounds. 1-Anilinonaphthalene-8-Sulfonic Acid (1,8-ANS) (Invitrogen) was used as a fluorescent dye to label the test proteins. […] Assay plates were robotically loaded onto a thermostatically controlled PCR-type thermal block and then heated at a ramp-rate of 1°C/min. Fluorescence emission was initiated by continuous illumination with UV light (LC6, Hamamatsu) via fiber optic with a band-pass filter (380–400 nm) and detected with a CCD camera (Sensys, Roper Scientific) filtered to detect signal of 500 ± 25 nm. […]

## COc1nc2ccc([C@@](O)(c3ccc(C)nc3C)c3cnnn3C)cc2c(Cl)c1Cc1ccc(C(F)(F)F)cc1 [compound A]
Aa1; 1 µM
  % Inhibition at 1µM: 8%
Aa1; 10 µM
  % Inhibition at 10µM: 5%
Aa2
  % Inhibition at 10µM: 7%

## CN(C)c1nc2ccc(C(O)(c3ccncc3)c3cncn3C)cc2c(Cl)c1-c1ccccc1 (stereo not drawn) [compound D]
RORγt transcripts
  effect on RORγt expression in T cells: did not affect
IL-17A transcripts; 24 hours
  reduction of IL-17A transcripts: 79%
IL-17A transcripts; 72 hours
  reduction of IL-17A transcripts: 73%
IL-17A transcripts; day 6
  decrease of IL-17A transcripts: 67%
H2 (h)
  inhibition at 10 µM: 5%

## COc1nc2ccc([C@@](O)(c3ccccc3)C3CCN(C(C)=O)CC3)cc2c(Cl)c1Cc1ccc(-n2cccn2)cc1 [C]
RORγ/γt LBD
  Kd: 4.4 nM

Source: PMC5538713, “RORγt and RORα signature genes in human Th17 cells” (PLoS ONE, 2017)
